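Tested at 5 concentrations; 48 h exposure; 96-well plates; endpoints linearly interpolated, else capped at highest concentration. GI50 marks 50% less growth. TGI: concentration producing complete growth inhibition.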
What was measured:
Assay in all cases: NCI anticancer screen, dose series, 48 h
SF-268 CNS = tested on: SF-268 CNS
KM12 colon = tested on: KM12 colon
SK-MEL-2 melanoma = tested on: SK-MEL-2 melanoma
SF-295 CNS = tested on: SF-295 CNS
NCI-H460 lung = tested on: NCI-H460 lung
T-47D breast = tested on: T-47D breast
U251 CNS = tested on: U251 CNS
CCRF-CEM leukemia = tested on: CCRF-CEM leukemia
TK-10 renal = tested on: TK-10 renal
HL-60(TB) leukemia = tested on: HL-60(TB) leukemia

Compound | TGI (SF-268 CNS) | TGI (KM12 colon) | TGI (SK-MEL-2 melanoma) | TGI (SF-295 CNS) | TGI (NCI-H460 lung) | TGI (T-47D breast) | TGI (U251 CNS) | TGI (CCRF-CEM leukemia) | TGI (TK-10 renal) | TGI (HL-60(TB) leukemia) | GI50 (SF-268 CNS) | GI50 (KM12 colon) | GI50 (SF-295 CNS) | GI50 (NCI-H460 lung) | GI50 (HL-60(TB) leukemia) | GI50 (T-47D breast) | GI50 (TK-10 renal) | GI50 (SK-MEL-2 melanoma) | GI50 (U251 CNS) | GI50 (CCRF-CEM leukemia)
CN(C)CCOC(=O)COc1ccc(Cl)cc1 | > 100 µM | > 100 µM | > 100 µM | > 100 µM | > 100 µM | > 100 µM | > 100 µM | > 100 µM |  |  |  |  |  |  |  |  |  |  |  | 
COc1ccc(C2(c3ccc(OC)cc3)OC(=O)c3cccc4cccc2c34)cc1 | > 100 µM | > 100 µM | > 100 µM | > 100 µM | > 100 µM | 80.8 µM | > 100 µM | 7.71 µM | 96.4 µM |  |  |  |  |  |  |  |  |  |  | 
O=c1[nH]c(=O)n(C2OC(COP(=O)(O)OP(=O)(O)O)C(O)C2O)cc1F (stereo unspecified) | > 50 µM | > 50 µM | > 50 µM | > 50 µM | 12.7 µM |  | > 25.2 µM | > 50 µM | > 50 µM | > 50 µM |  |  |  |  |  |  |  |  |  | 
Cc1c2c3cc(O)ccc3nc-2n(C)c2ccccc12 | 8.02 µM | 5.28 µM |  | 13 µM | 5.11 µM | 17.1 µM | 6.91 µM | 4.37 µM | 9.82 µM | 19.8 µM |  |  |  |  |  |  |  |  |  | 
CCN(CC)CCO/N=C1\CC[C@H]2[C@@H]3CC=C4C[C@@H](O)CC[C@]4(C)[C@H]3CC[C@]12C | > 100 µM | 38.5 µM | 48.4 µM | 38.6 µM | 29.8 µM |  | 35.9 µM |  | 96.1 µM | 44.5 µM |  |  |  |  |  |  |  |  |  | 
CC1=CC(O)C(O)C2(C)C1CC1OC(=O)C(O)C3C(C)C(O)C4(O)OCC13C42 (stereo unspecified) | 444 µM | 389 µM | 196 µM | 364 µM | 50 µM |  | 475 µM | 96.9 µM |  | 189 µM |  |  |  |  |  |  |  |  |  | 
O=C1c2[nH]cc(CN3CCNCC3)c2C(=O)c2c1c(O)c1ccccc1c2O | 66.4 µM | 53 µM |  | 3.37 µM | > 78.3 µM | 34.4 µM |  |  | 12.2 µM | > 100 µM | 22.9 µM | 20.9 µM | 1.74 µM | 18.5 µM | 22 µM | 13.8 µM | 6.5 µM |  |  | 
O=C1NC(=S)N/C1=C/c1ccccc1O | > 100 µM |  | > 100 µM | > 100 µM |  | > 100 µM | > 100 µM | > 100 µM | > 100 µM | > 100 µM |  |  |  |  |  |  |  |  |  | 
CC1(C)O[C@@H](CO)[C@H]([C@@]23OC[C@H]4OC(C)(C)OC4[C@@H]2OC(C)(C)O3)O1 (stereo partly specified) | > 100 µM | > 100 µM | > 100 µM | > 100 µM | > 100 µM | > 100 µM | > 100 µM |  |  | > 100 µM |  |  |  |  |  |  |  |  |  | 
CC1(C)COC(c2cccc(C3=NC(C)(C)CO3)c2Br)=N1 | > 100 µM | > 100 µM | > 100 µM |  | > 100 µM | > 100 µM | > 100 µM |  | > 100 µM | > 100 µM |  |  |  |  |  |  |  |  |  | 
CC1(O)C=CC2CCC1C2O (stereo unspecified) | 93.7 µM | > 100 µM | > 100 µM | > 100 µM | > 100 µM |  | > 100 µM | > 100 µM | > 100 µM | > 100 µM |  |  |  |  |  |  |  |  |  | 
S=C(N/N=C\C=N/NC(=S)N1CCCCCC1)N1CCCCCC1 | > 100 µM | > 100 µM | > 100 µM | > 100 µM | > 100 µM | 21.8 µM | > 100 µM |  | > 100 µM |  |  |  |  |  |  |  |  |  |  | 
Nc1nc(Cl)cc(N=Nc2ccccc2)n1 | > 100 µM | > 100 µM | 46.9 µM | > 100 µM |  | > 100 µM |  | > 100 µM | > 100 µM | 75 µM |  |  |  |  |  |  |  |  |  | 
COc1ccc(C(O)c2ccc3c(c2)OCO3)cc1 (stereo unspecified) | > 100 µM | > 100 µM |  | > 100 µM | > 100 µM | > 100 µM | > 100 µM | > 100 µM | > 100 µM | > 100 µM |  |  |  |  |  |  |  |  |  | 
Cn1c(=O)c2c(-c3ccccc3)onc2n(C)c1=O | > 100 µM | > 100 µM | 81.8 µM | > 100 µM | > 100 µM | > 100 µM | > 100 µM | 77.9 µM | 42.9 µM |  |  |  |  |  |  |  |  |  |  | 
NC(Cc1cc(I)c(O)c(I)c1)C(=O)O (stereo unspecified) | > 500 µM | > 500 µM | > 500 µM | > 500 µM | > 349 µM |  | > 500 µM | > 500 µM |  | > 500 µM |  |  |  |  |  |  |  |  |  | 
CS(=O)(=O)OCCN1CCC2(CC1)SSC1(CCN(CCOS(C)(=O)=O)CC1)S2 | 58.1 µM | > 100 µM | > 100 µM | > 100 µM | > 100 µM |  | > 100 µM |  | 55.8 µM | 59.7 µM |  |  |  |  |  |  |  |  |  | 
COc1cccc(NC(=O)CSc2nnc(-c3ccc(N=Cc4ccc(Cl)cc4)cc3)o2)c1 | 46.3 µM | 31.3 µM | 39.8 µM | 43.5 µM | 60.6 µM |  | 30.8 µM | > 100 µM | 74.3 µM | 87.8 µM |  |  |  |  |  |  |  |  |  | 
Cc1cc(Cc2c(F)c(F)c(Cc3cc(C)no3)c(F)c2F)on1 | > 100 µM |  | > 100 µM | > 100 µM |  | > 100 µM | > 100 µM | > 100 µM | > 100 µM | > 100 µM |  |  |  |  |  |  |  |  |  | 
O=C(Nn1c(-c2ccccc2)nc2ccccc2c1=O)c1ccccn1 | > 100 µM | > 100 µM |  | > 100 µM | > 100 µM | > 100 µM | > 100 µM | > 100 µM | > 100 µM | > 100 µM |  |  |  |  |  |  |  |  |  | 
Cc1ccc(C(=O)N(C(C)C)C(C)C)cc1N=NN(C)C | 98 µM | > 100 µM | > 100 µM | > 100 µM | > 100 µM | > 100 µM | > 100 µM |  | > 100 µM | > 100 µM |  |  |  |  |  |  |  |  |  | 
N#Cc1c(NC(=O)c2ccccc2)sc2c1CCC(=O)C2 | 38.4 µM | 5.22 µM | 8.65 µM | 6.83 µM | > 100 µM |  | 16.9 µM | > 100 µM | 28.7 µM | 2.96 µM | 2.59 µM | 0.711 µM | 1.96 µM | 2.22 µM | 0.309 µM |  | 1.98 µM | 2.45 µM | 1.52 µM | 0.43 µM
